What was measured:
Format in all cases: biochemical
MMP 9 = target: T1, MMP 9 (Homo sapiens, UniProt P14780); assay: In vitro gelatinase assay (human neutrophil gelatinase B); settings: for IC50: read-out: MMP 9 IC 50
T1 construct: from tissue; host or cells: human neutrophils
Procedure: The assay is based on the cleavage of the thiopeptide substrate ((Ac-Pro-Leu-Gly(2 mercapto-4 methyl-pentanoyl)-Leu-Gly-OEt), Bachem Bioscience) by the enzyme, gelatinase, releasing the substrate product which reacts calorimetrically with DTNB ((5,5′-dithio-bis(2-nitro-benzoic acid)). The enzyme activity is measured by the rate of the color increase.
The thiopeptide substrate is made up fresh as a 20 mM stock in 100% DMSO and the DTNB is dissolved in 100% DMSO as a 100 mM stock and stored in dark at room temperature. Both the substrate and DTNB are diluted together to 1 mM with substrate buffer (50 mM HEPES pH 7.5, 5 mM CaCl2) before use. The stock of human neutrophil gelatinase B is diluted with assay buffer (50 mnM HEPES pH 7.5, 5 mM CaCl2, 0.02% Brij) to a final concentration of 0.15 mnM.
The increase in OD405 is plotted and the slope of the line is calculated which represents the reaction rate.

TACE = target: T2, TACE (Homo sapiens, UniProt P78536); assay: Procedure for measuring TACE inhibition; parameters: TACE % inhibition: dose or concentration left out as unconfirmed; settings: for IC50: read-out: TACE IC 50
T2 construct: purchased Immunex
Procedure: Using 96-well black microtiter plates, each well receives a solution composed of 10 μL TACE (Inmunex, final concentration 1 μg/mL), 70 μL Tris buffer, pH 7.4 containing 10% glycerol (final concentration 10 mM), and 10 μL of test compound solution in DMSO ([…], DMSO concentration <1%) and incubated for 10 minutes at room temperature. The reaction is initiated by addition of a fluorescent peptidyl substrate (final concentration 100 μM to each well and then shaking on a shaker for 5 sec.
The reaction is read (excitation 340 nm, emission 420 nm) for 10 min. and the increase in fluorescence over time is plotted as a linear line. The slope of the line is calculated and represents the reaction rate.
The mean (xtsem) of the control rate is calculated and compared for statistical significance (p<0.05) with drug-treated rates using Dunnett's multiple comparison test.

MMP 13 = MMP 13 (Homo sapiens, UniProt P45452); assay: MMP 13 inhibition (manual); settings: for IC50: read-out: MMP 13 IC 50
MMP 1 = target: T3, MMP 1 (Homo sapiens, UniProt P03956); assay: In vitro collagenase assay (human recombinant fibroblast collagenase); settings: for IC50: read-out: MMP 1 IC 50
T3 construct: human recombinant fibroblast collagenase (truncated, mw=18,828, WAR, Radnor)
T3 sequence (P03956 100-269 limits assumed): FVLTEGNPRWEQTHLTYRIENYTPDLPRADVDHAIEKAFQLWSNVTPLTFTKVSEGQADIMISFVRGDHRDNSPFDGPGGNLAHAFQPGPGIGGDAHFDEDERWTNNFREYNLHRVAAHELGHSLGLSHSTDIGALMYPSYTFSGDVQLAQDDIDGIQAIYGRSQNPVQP
Procedure: The assay is based on the cleavage of a peptide substrate ((Dnp-Pro-Cha-Gly-Cys(iNe)-His-Ala-Lys(NMa)-NH2), Peptide International, Inc.) by collag,enase releasing the fluorescent NMa group which is quantitated on the fluorometer. Dnp quenches the NiIa fluorescence in the intact substrate. […] Substrate is dissolved in methanol and stored frozen in 1 mM aliquots. Collagenase is stored frozen in buffer in 25 µM aliquots. For the assay, substrate is dissolved in HCBC buffer to a final concentration of 10 μM and collagenase to a final concentration of 5 nM. Compounds are dissolved in methanol, DMSO, or HCBC. The methanol and DMSO are diluted in HCBC to <1.0%. Compounds are added to the 96 well plate containing enzyme and the reaction is started by the addition of substrate.
The slope of the line is calculated and represents the reaction rate.
The mean (x±sem) of the control rate is calculated and compared for statistical significance (p<0.05) with drug-treated rates using Dunnett's multiple comparison test.

T1 sequence (P14780 94-707): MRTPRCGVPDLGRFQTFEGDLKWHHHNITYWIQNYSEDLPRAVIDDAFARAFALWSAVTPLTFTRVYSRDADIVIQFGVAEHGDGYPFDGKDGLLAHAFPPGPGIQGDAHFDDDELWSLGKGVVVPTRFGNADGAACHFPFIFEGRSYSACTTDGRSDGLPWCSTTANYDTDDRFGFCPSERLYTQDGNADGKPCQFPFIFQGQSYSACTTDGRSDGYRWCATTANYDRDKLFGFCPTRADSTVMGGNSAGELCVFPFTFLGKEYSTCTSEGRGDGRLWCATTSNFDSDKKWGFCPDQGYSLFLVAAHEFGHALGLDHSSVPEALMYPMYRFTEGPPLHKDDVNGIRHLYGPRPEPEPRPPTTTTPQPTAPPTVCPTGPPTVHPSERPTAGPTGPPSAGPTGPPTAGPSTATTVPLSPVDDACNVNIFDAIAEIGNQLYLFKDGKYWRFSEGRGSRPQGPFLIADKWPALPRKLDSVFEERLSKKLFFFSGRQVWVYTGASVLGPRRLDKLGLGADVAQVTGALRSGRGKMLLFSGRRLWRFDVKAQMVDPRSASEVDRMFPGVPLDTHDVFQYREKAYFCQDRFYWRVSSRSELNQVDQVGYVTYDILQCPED
T2 sequence (P78536 215-824): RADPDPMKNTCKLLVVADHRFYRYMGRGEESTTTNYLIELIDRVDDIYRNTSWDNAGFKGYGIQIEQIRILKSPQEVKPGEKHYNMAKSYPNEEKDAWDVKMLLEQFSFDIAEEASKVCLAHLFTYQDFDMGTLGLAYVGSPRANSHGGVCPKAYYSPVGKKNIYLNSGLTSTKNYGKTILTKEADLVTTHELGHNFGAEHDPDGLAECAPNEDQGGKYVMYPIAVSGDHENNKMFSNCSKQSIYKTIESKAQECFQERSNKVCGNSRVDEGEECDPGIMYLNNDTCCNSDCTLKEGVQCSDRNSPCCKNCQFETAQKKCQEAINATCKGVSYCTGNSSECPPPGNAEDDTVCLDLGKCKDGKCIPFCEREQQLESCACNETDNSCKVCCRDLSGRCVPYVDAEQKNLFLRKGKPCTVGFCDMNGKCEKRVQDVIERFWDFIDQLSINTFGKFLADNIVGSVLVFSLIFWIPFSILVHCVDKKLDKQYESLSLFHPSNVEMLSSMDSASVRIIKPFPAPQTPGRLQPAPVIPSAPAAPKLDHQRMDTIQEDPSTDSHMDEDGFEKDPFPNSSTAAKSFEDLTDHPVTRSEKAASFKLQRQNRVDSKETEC

Row | Compound | IC50 (MMP 9) [nM] | IC50 (TACE) [nM] | TACE % inhibition at 1 micromolar (TACE) [%] | also measured
1 | 1-(Bromo-benzyl)-4-(4-methoxy-benzenesulfonyl)-piperidine-4-carboxylic acid hydroxyamide [Example 90] | 10.3 | 71.9 |  | 
2 | 2-(4-Fluoro-benzenesulfonyl)-2-but-2-ynyl-hexynoic acid hydroxyamide [Example 78] | 560 |  | 24.58 | IC50 (MMP 13): 34 nM
3 | 2-[8-(1-carboxy-ethanesulfonyl)-octane-1-sulfonyl]-propionic acid hydroxyamide [Example 49] |  |  |  | MMP 1 % inhibition at 1 micromolar (MMP 1; 1 micromolar): 10.1%; MMP 9 % inhibition at 1 micromolar (MMP 9; 1 micromolar): 23.7%; MMP 13 % inhibition at 1 micromolar (MMP 13; 1 micromolar): 54.6%
4 | 5-Methyl-2-(3-methyl-but-2-enyl)-2-(toluene-4-sulfonyl)-hexenoic acid hydroxyamide [Example 42] | 50.9 | 36.5 |  | IC50 (MMP 13): 6.2 nM
5 | COc1ccc(SC(C)(Cc2ccccc2)C(=O)NO)cc1 (centres unmarked) [Example 1, N-Hydroxy-2-(4-methoxy-phenylsulfanyl)-2-methyl-3-phenyl-propionamnide] | 560 |  | 31.62 | IC50 (MMP 13): 193 nM
6 | COc1ccc([S+]([O-])C(C)(Cc2ccccc2)C(=O)NO)cc1 (centres unmarked) [Example 5, N-Hydroxy-2-(4-methoxy-benzenesulfmyl)-2-methyl-3-phenyl-propionamide] |  |  | 25 | 
7 | COc1ccc(S(=O)(=O)C(Cc2ccccc2)C(=O)NO)cc1 (centres unmarked) [Example 9, N-Hydroxy-2-(4-methoxy-benzenesulfonyl)-3-phenyl-propionarmide] |  |  | 20.30 | 
8 | COc1ccc(S(=O)(=O)C(C)(Cc2ccc(OCCN(C(C)C)C(C)C)cc2)C(=O)NO)cc1 (centres unmarked) [Example 20, N-Hydroxy-2-(4-methoxy-benzenesulfonyl)-2-methy-3-[4-(2-N,N-diisopropylamino-ethoxy)-phenyl]-propionamide] |  |  | 31 | 
9 | COc1ccc(S(=O)(=O)C(C)(Cc2ccc(OCCCN3CCN(c4cccc(Cl)c4)CC3)cc2)C(=O)NO)cc1 (centres unmarked) [Example 23, 3-(4-{3-[4-(3-Chloro-phenyl)-piperain-1-yl]-propoxy}-phenyl)-N-hydroxy-2-(4-methoxy-benzenesulfonyl)-2-methyl-propionamide] |  |  | 40.6 | 
10 | COc1ccc(S(=O)(=O)C(C)(Cc2cccc(OCCN3CCOCC3)c2)C(=O)NO)cc1 (centres unmarked) [Example 30, N-Hydroxy-2-(4-methoxy-benzenesulfonyl)-2-methyl-3-[3-(2-morpholin-1-yl-ethoxy)-phenyl]-propionamide] |  |  | 25.2 | 
11 | COc1ccc(S(=O)(=O)C(CCCCOc2ccccc2)(Cc2cccnc2)C(=O)NO)cc1 (centres unmarked) [Example 68, 2-(4-Methoxy-benzenesulfonyl)-6-phenoxy-2-pyridin-3-yhnethyl-hexanoic acid hydroxyamide] | 29 | 522 |  | IC50 (MMP 13): 27 nM
12 | CCCCCC#CCC(CC#CCCCCC)(C(=O)NO)S(=O)(=O)c1ccc(OC)cc1 [Example 71, 2-(4-methoxy-benzenesulfonyl)-2-oct-2-ynyl-decffynoic acid hydroxyamide] |  |  | 42.21 | 
13 | CC#CCC(CC#CC)(C(=O)NO)S(=O)(=O)c1ccc(OC)cc1 [Example 72, 2-(4-Methoxy-benzenesulfonyl)-2-but-2-ynyl-hextynoic acid hydroxyamide] |  |  | 51.64 | 
14 | C#CCC(CC#C)(C(=O)NO)S(=O)(=O)c1ccc(OC)cc1 [Example 73, 2-(4-Methoxy-benzenesulfonyl)-2-prop-2-ynyl-pentynoic acid hydroxyamde] |  |  | 20.17 | 
15 | COc1ccc(S(=O)(=O)C(CC=C(C)C)(CC=C(C)C)C(=O)NO)cc1 [Example 79, 2-(4-Methoxy-benzenesulfonyl)-5-methyl-2-(3-methyl-but-2-enyl)-hexenoic acid hydroxyamide] | 0.54 | 805 |  | IC50 (MMP 1): 25 nM
16 | COc1ccc(S(=O)(=O)C2(C(=O)NO)CCN(CCCOc3ccccc3)CC2)cc1 [Example 105, 4-(4-Methoxy-benzenesulfony)-1-(3-phenoxy-propyl)-pipendine-4-carboxyllc acid hydroxyamide] |  |  | 50.2 | 
17 | CCCCCCC(Sc1cccc(C(=O)NO)c1)C(=O)NO (centres unmarked) [Example 184] |  |  |  | TACE % inhibition (TACE): 24.8%
18 | CCCCCCC(C(=O)NO)[S+]([O-])c1cccc(C(=O)NO)c1 (centres unmarked) [Example 188, 3-(1-Hydroxycarbamoyl-heptylsulfmyl)-benzoicacid hydroxyamide] |  |  |  | TACE % inhibition at 1 µM (TACE): 16.2%
19 | CCCCOc1ccc(S(=O)(=O)C2(C(=O)NO)CCN(Cc3ccc(OCCN4CCCCC4)cc3)CC2)cc1 [Example 242, 4-(4-Butoxy-benzenesulfonyl)-1-[4-(2-piperidin-1-yl-ethoxy)-benzyl]-piperidine-4-carboxylic acid hydroxyamide] | 2 | 581 |  | IC50 (MMP 1): 1950 nM
20 | CCCCOc1ccc(S(=O)(=O)C2(C(=O)NO)CCN(Cc3cccc(OCCN4CCOCC4)c3)CC2)cc1 [Example 243, 4(4-Butoxy-benzenesulfonyl)-1-[3-(2-morpholinyl-1-ylthoxy)-benzyl]-piperidine-4-carboxylic acid hydroxyamide] |  | 506 |  | IC50 (MMP 1): 2180 nM
21 | CN1CCC(C(=O)NO)(S(=O)(=O)c2ccc(Oc3ccc(Cl)cc3)cc2)CC1 [Example 249, 4-[4-(4-chloro-phenoxy)-benzenesulfonyl]1-methyl-piperidine-4-carboxylic acid hydroxyamide] | 2 | 270 |  | IC50 (MMP 13): 1.6 nM
22 | O=C(NO)C1(S(=O)(=O)c2ccc(Oc3ccc(Cl)cc3)cc2)CCN(Cc2ccccc2)CC1 [Example 252, 1-Benzyl-4-[4-(4-chloro-phenoxy)-benzenesulfonyl]-piperidine-4-carboxylic acid hydroxyamide] | 1.1 |  |  | IC50 (MMP 1): 801 nM; IC50 (MMP 13): 0.9 nM
23 | CC(C)CCOc1ccc(S(=O)(=O)C2(C(=O)NO)CCN(Cc3ccccc3)CC2)cc1 [Example 255, 1-Benzyl-4-[4-(3-methyl-butoxy)-benzenesulfonyl]-piperidine-4-carboxylic acid hydroxyamide] |  | 565 |  | IC50 (MMP 13): 1.5 nM
24 | CCCCOc1ccc(S(=O)(=O)C2(C(=O)NO)CCN(Cc3cccc(OC)c3)CC2)cc1 [Example 260, 4-(4-butoxy-benzenesulfonyl)-1-(3-methoxy-benzyl)-piperidine-4-carboxylic acid hydroxyamide] | 2.9 | 272 |  | IC50 (MMP 1): 1490 nM
25 | COc1ccc(S(=O)(=O)C2(C(=O)NO)CCN(Cc3ccc(-c4cccs4)cc3)CC2)cc1 [Example 261, 4-(4-Methoxy-benzenesulfonyl)-1-(thiophen-2-yl-benzyl)-piperidine-4-carboxylic acid hydroxyamide] | 10.9 |  |  | IC50 (MMP 1): 513 nM
26 | COc1ccc(S(=O)(=O)C2(C(=O)NO)CCN(Cc3ccc(-c4ccccn4)cc3)CC2)cc1 [Example 262, 4-(4-methoxy-benzenesulfonyl)-1-(4-pyridin-2-yl-benzyl)-piperidine-4-carboxylic acid hydroxyamide] | 6.1 | 298 |  | IC50 (MMP 1): 422 nM
27 | Cc1ccc(CN2CCC(C(=O)NO)(S(=O)(=O)c3ccc(OCc4ccc(Cl)cc4)cc3)CC2)cc1 [Example 266, [4-(4-Chloro-benzyloxy)-benzenesulfonyl]-1-(4-methylbenzyl)-piperidine-4-carboxylic acid hydroxamide] | 6 | 421 |  | IC50 (MMP 13): 5.7 nM
28 | (1-Hydroxycarbamoyl-propane-1 -sulfanyl)-propionic acid hydroxyamide [Example 122] |  |  |  | TACE % inhibition at 1 µM (TACE): 3.1%
